Reference: publication PMC5917010, “Structural basis for GPR40 allosteric agonism and incretin stimulation” (Nature Communications, 2018)

System: GPR40 KO mice
Assay: OGTT in GPR40 KO mice
Type: in vivo, mouse
Conditions: high dose of compound 1
Protocol: Eight to thirteen week old male C57BL/6 or KO mice were used. The day before the study, at 1600 hours, animals were transferred into clean cages and food was removed. The following morning (~0800 hours), mice were randomized by block randomization to treatment groups (N = 5–7 per group) so each group had similar mean and standard deviation of body weight and blood glucose. […] Animals were dosed with vehicle (0.5% MC/0.25% Tween-80) or the test article by oral gavage. Group allocations were not blinded from the experimenters who collected the data. After 60 min compound treatment animals were then given an oral gavage of glucose (2 g/kg). At 0, 15, 30, 60, and 120 min post oral glucose, two glucose readings via glucometers were obtained. The average of two glucose readings was reported at each time point. Data were expressed as mean±standard error (s.e.m.). Blood glucose values were analyzed using ANOVA with repeated measures. Cook’s distance was also calculated from linear regression. All animals were included in the analysis with their individual averaged Cook’s distance < 1. Dunnett’s comparison was performed at each time point by R program. Significance is denoted at p < 0.05.

COc1ccc(C(=O)N(CC(C)(C)C)c2cccc(C)n2)c(N2CCC(c3cc4ccc([C@@H](CC(=O)O)C5CC5)cc4o3)CC2)c1 [compound 1]
blood glucose in OGTT, GPR40 KO: No change in blood glucose
